We go through one compound from paper PMC4580987, “Catalytic site inhibition of insulin-degrading enzyme by a small molecule induces glucose intolerance in mice” (Nature Communications, 2015).

The experiment has as its system C57BL/6J mice. The experiment in a line: Oral glucose tolerance test (OGTT) in C57BL/6J mice. Type of experiment: in vivo, mouse. The method, then:
OGTT and IPGTT were performed on 11 to 16 week-old male or female mice (n=4–7 per experimental group). C57BL/6J mice were purchased from Charles River Laboratories (France), Stock no. 000664. C57BL/6J Ide−/− mice were obtained from Guenette[20] and bred in the animal facility of INSERM U1151. WT C57BL/6J mice of the same genetic background were bred in the same animal facility in parallel. NOD Ide−/− mice were generated by backcrossing C57BL/6J Ide−/− mice with NOD wt mice bred in the animal facility of INSERM U1151 and maintained in this facility together with WT NOD mice. Normoglycemic WT and Ide−/− female NOD mice aged 14 weeks were used for OGTTs. Following a 6 h fasting period, a small tail cut was made, basal blood glucose was determined. […] Fifteen minutes later, blood glucose concentrations were measured before and after (up to 120 min, as shown) oral (2 g kg^−1 or 3 g kg^−1, as shown) or intraperitoneal (1.5 g kg^−1) glucose administration. In one series of OGTTs using 3 g kg^−1 glucose and shown in Fig. 5, groups of WT and Ide−/− were inverted between experiments, such that mice initially treated with vehicle were treated 2 days later with 1 and vice versa. Blood glucose levels were determined using an Accu-Check glucometer (Roche Diagnostics). Areas under the curves (AUC) for OGTT and IPGTT were calculated to evaluate glucose tolerance. Plasma insulin concentrations were measured by ELISA (cat. no. 10-1247-01,Mercodia) in blood samples collected 15 min before and 15 and 90 min relative to oral glucose injection. The protocol was approved by the ethical comitee CEEA Paris Descartes (CEEA34).

“Also recorded” adds a separate entry of the source.

As to `O=C(C[C@@H](Cc1ccc2ccccc2c1)n1cc(CNC(=O)c2ccc(F)cc2)nn1)NO` [Compound 1], the “glucose tolerance in OGTT, WT C57BL/6J” value (50 mg kg^−1 ip, 3 g kg^−1 oral glucose 15 min later) is listed as “Impairs glucose tolerance in OGTT; also recorded: acute glucose intolerance”. For the setting “50 mg kg^−1 ip, Ide−/− mice”, the “glucose tolerance in OGTT, Ide−/− C57BL/6J” value is “did not develop glucose intolerance” and the “plasma insulin concentrations in OGTT, Ide−/− C57BL/6J” value is “no effect”. The “plasma glucose after oral glucose administration (OGTT compared with IPGTT)” value (50 mg kg^−1 ip, oral glucose 2 g kg^−1) was “significantly increased”. Also, the “plasma insulin levels in OGTT versus vehicle, WT C57BL/6J” value (baseline, 15 and 90 min after glucose load) is recorded as “similar”.
